The values below come from patent US12509444B2, “Compounds and methods for CD73 modulation and indications therefor” (Plexxikon Inc., priority 2019, dated 2025).

The target in experiment [1] is T1, Human CD73 (amino acid residues 27-549) (Homo sapiens, UniProt P21589).
T1 construct: Human CD73 (amino acid residues 27-549); His tag (N); made in house; host or cells: E. coli
T1 sequence (P21589 27-549): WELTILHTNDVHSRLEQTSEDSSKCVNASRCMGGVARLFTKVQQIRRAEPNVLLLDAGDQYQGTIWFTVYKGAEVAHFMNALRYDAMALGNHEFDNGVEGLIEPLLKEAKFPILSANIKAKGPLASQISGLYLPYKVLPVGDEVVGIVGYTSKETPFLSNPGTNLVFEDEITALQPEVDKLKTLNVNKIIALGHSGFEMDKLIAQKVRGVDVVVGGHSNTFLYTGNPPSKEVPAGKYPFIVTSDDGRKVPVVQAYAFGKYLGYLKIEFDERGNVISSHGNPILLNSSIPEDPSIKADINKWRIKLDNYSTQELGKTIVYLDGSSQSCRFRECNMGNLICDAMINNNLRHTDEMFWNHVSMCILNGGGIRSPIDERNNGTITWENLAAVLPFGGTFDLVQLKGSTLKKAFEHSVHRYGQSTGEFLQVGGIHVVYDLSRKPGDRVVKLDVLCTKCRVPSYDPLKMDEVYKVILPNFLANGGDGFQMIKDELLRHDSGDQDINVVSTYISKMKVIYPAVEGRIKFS
Put plainly: CD73 enzymatic assay (luciferase-based indirect assay, CellTiter-Glo). The following applies: 0.4 nM CD73, 150 μM AMP, 1 hour at room temperature. The experiment is classed as biochemical. The essentials: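 Residual AMP inhibits luciferase, so luminescence reports CD73 turnover; read with CellTiter-Glo 2.0 plus 1 μM final ATP, 30 min. Reaction used 0.4 nM N-His CD73 (27-549, E. coli), 150 μM AMP, HEPES pH 7.4 with Tween 20, 1 h at room temperature. IC50 fitted by nonlinear regression.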
A general note: In ATP-based viability assays light output follows the ATP content of the culture.

The target of another experiment is T2, human CD73 (Homo sapiens, UniProt P21589).
T2 construct: expressed in transfected cells
T2 sequence (P21589 27-549): T1 sequence (P21589 27-549)
Put plainly: Inhibitor activity against CD73 in cell based assay (CD73 expressing CHO-K1 cells). Conditions: CHO-K1 cells expressing human CD73, 150 μM AMP, 4 hours of incubation; read-out: CHO-K1 CELL VARIANT: CD73 IC50. The essentials:
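Residual supernatant AMP was quantified via CellTiter-Glo luminescence (1 μM ATP added, 30 min, room temperature) after a 4 h exposure of human CD73-expressing CHO-K1 cells to 150 μM AMP plus compound, top final 10 μM, 8 points. IC50 came from nonlinear regression of percent inhibition.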

As to `O=C(NC1CC2CCC1O2)O[C@@H]1CCN(c2cnn(CCO)c(=O)c2Cl)C1` (stereo partly drawn) [P-0451, (R)-1-(5-chloro-1-(2-hydroxyethyl)-6-oxo-1,6-dihydropyridazin-4-yl)pyrrolidin-3-yl (7-oxabicyclo[2.2.1]heptan-2-yl)carbamate], the IC50 (in experiment [1]; on human CD73) was 0.001 to 10 µM in each case.
For `CC1(NC(=O)O[C@@H]2CCN(c3cnn(CCO)c(=O)c3Cl)C2)CCCC1` [P-0452, (R)-1-(5-chloro-1-(2-hydroxyethyl)-6-oxo-1,6-dihydropyridazin-4-yl)pyrrolidin-3-yl (1-methylcyclopentyl)carbamate], the IC50 (in experiment [1]; on human CD73) was 0.001 to 10 µM in each case.
`O=C(NC1CC2C(C1)C2(F)F)O[C@@H]1CCN(c2cnn(CCO)c(=O)c2Cl)C1` (stereo partly drawn) [P-0453, (R)-1-(5-chloro-1-(2-hydroxyethyl)-6-oxo-1,6-dihydropyridazin-4-yl)pyrrolidin-3-yl (6,6-difluorobicyclo[3.1.0]hexan-3-yl)carbamate]: the IC50 (in experiment [1]; on human CD73) was 0.001 to 10 µM throughout.
`O=C(N[C@@H]1CCC(F)(F)C1)O[C@@H]1CCN(c2cn[nH]c(=O)c2Cl)C1` [P-0454, (R)-1-(5-chloro-6-oxo-1,6-dihydropyridazin-4-yl)pyrrolidin-3-yl ((R)-3,3-difluorocyclopentyl)carbamate]: the IC50 (in experiment [1]; on human CD73) was 0.001 to 10 µM each time.
`O=C(N[C@H]1CCC[C@H]1O)O[C@@H]1CCN(c2cn[nH]c(=O)c2Cl)C1` [P-0455, (R)-1-(5-chloro-6-oxo-1,6-dihydropyridazin-4-yl)pyrrolidin-3-yl ((1S,2R)-2-hydroxycyclopentyl)carbamate]: the results for the IC50 (in experiment [1]; at human CD73) were 0.001 to 10 µM and 10 to 100 µM, respectively.
The corresponding values for `CCOC(=O)[C@@H]1CCC[C@H]1NC(=O)O[C@@H]1CCN(c2cn[nH]c(=O)c2Cl)C1` [P-0456, ethyl (1R,2R)-2-(((((R)-1-(5-chloro-6-oxo-1,6-dihydropyridazin-4-yl)pyrrolidin-3-yl)oxy)carbonyl)amino) cyclopentane-1-carboxylate] are 0.001 to 10 µM and 0.001 to 10 µM.
The like results for `O=C(N[C@@H]1CC[C@@H](O)C1)O[C@@H]1CCN(c2cn[nH]c(=O)c2Cl)C1` [P-0457, (R)-1-(5-chloro-6-oxo-1,6-dihydropyridazin-4-yl)pyrrolidin-3-yl ((1R,3R)-3-hydroxycyclopentyl)carbamate] were, in that order, 0.001 to 10 µM and 0.001 to 10 µM.
The corresponding values for `O=C(N[C@H]1CC[C@H](O)C1)O[C@@H]1CCN(c2cn[nH]c(=O)c2Cl)C1` [P-0458, (R)-1-(5-chloro-6-oxo-1,6-dihydropyridazin-4-yl)pyrrolidin-3-yl ((1S,3S)-3-hydroxycyclopentyl)carbamate] are 0.001 to 10 µM and 0.001 to 10 µM.
As to `O=C(N[C@H]1CC[C@@H](O)C1)O[C@@H]1CCN(c2cn[nH]c(=O)c2Cl)C1` [P-0459, (R)-1-(5-chloro-6-oxo-1,6-dihydropyridazin-4-yl)pyrrolidin-3-yl ((1S,3R)-3-hydroxycyclopentyl)carbamate], the half-maximal inhibitory concentration (IC50) (in experiment [1]; on human CD73) was 0.001 to 10 µM in each case.
Consider `O=C(N[C@@H]1CC[C@H](O)C1)O[C@@H]1CCN(c2cn[nH]c(=O)c2Cl)C1` [P-0460, (R)-1-(5-chloro-6-oxo-1,6-dihydropyridazin-4-yl)pyrrolidin-3-yl ((1R,3S)-3-hydroxycyclopentyl)carbamate], for which the IC50 (in experiment [1]; on human CD73) was 0.001 to 10 µM throughout.
On to `O=C(NC1CCCC1=O)O[C@@H]1CCN(c2cn[nH]c(=O)c2Cl)C1` (stereo partly drawn) [P-0461, (R)-1-(5-chloro-6-oxo-1,6-dihydropyridazin-4-yl)pyrrolidin-3-yl (2-oxocyclopentyl)carbamate], for which the concentration for half-maximal inhibition (IC50) (in experiment [1]; on human CD73) was 0.001 to 10 µM each time.
Turning to `O=C(NC1CCCC1)O[C@H]1CN(c2cn[nH]c(=O)c2Cl)C[C@@H]1F` [P-0462, (3S,4S)-1-(5-chloro-6-oxo-1,6-dihydropyridazin-4-yl)-4-fluoropyrrolidin-3-yl cyclopentylcarbamate], the IC50 (in experiment [1]; on human CD73) was 0.001 to 10 µM throughout.

What is called IC50 is the concentration that gives 50% inhibition.
